Several values for one entry are separate records, joined by “and”; a condition that tells them apart may be missing. Equal entries are not always repeated. Toxic doses and inconclusive results are not listed. Rule as the data show it: active = T/C of 150% or more; inactive = T/C below 125%.
Tested on: L1210 leukemia ip in BDF1 mice, survival T/C
Experiment: NCI In Vivo Anticancer Drug Screen. Data for tumor model L1210 Leukemia (intraperitoneal) in B6D2F1 (BDF1) mice
Details: endpoint: mean survival time, higher = longer survival
How it was run: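 Antitumor effect is assessed in tumor-bearing animals. Survival in the compound arm is compared with a vehicle-dosed control arm and expressed as their quotient.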

[1] = dose: 50.0 mg/kg/injection, schedule: Q01DX009 (ip), vehicle: Klucel (hydroxypropylcellulose) (HPC)
[2] = dose: 100.0 mg/kg/injection, schedule: Q01DX009 (ip), vehicle: Klucel (hydroxypropylcellulose) (HPC)
[3] = dose: 100.0 mg/kg/injection, schedule: Q04DX003 (ip), vehicle: Klucel (hydroxypropylcellulose) (HPC)
[4] = dose: 200.0 mg/kg/injection, schedule: Q04DX003 (ip), vehicle: Klucel (hydroxypropylcellulose) (HPC)
[5] = dose: 50.0 mg/kg/injection, schedule: Q01DX009 (ip), vehicle: alcohol
[6] = dose: 100.0 mg/kg/injection, schedule: Q01DX009 (ip), vehicle: alcohol
[7] = dose: 100.0 mg/kg/injection, schedule: Q01DX001 (ip), vehicle: saline with Tween-80
[8] = dose: 50.0 mg/kg/injection, schedule: Q01DX001 (ip), vehicle: saline
[9] = dose: 100.0 mg/kg/injection, schedule: Q01DX001 (ip), vehicle: saline
[10] = dose: 200.0 mg/kg/injection, schedule: Q01DX001 (ip), vehicle: saline
[11] = dose: 400.0 mg/kg/injection, schedule: Q01DX001 (ip), vehicle: saline
[12] = dose: 100.0 mg/kg/injection, schedule: Q01DX001 (ip), vehicle: Klucel (hydroxypropylcellulose) (HPC)
[13] = dose: 200.0 mg/kg/injection, schedule: Q01DX001 (ip), vehicle: Klucel (hydroxypropylcellulose) (HPC)
[14] = dose: 100.0 mg/kg/injection, schedule: Q01DX009 (ip), vehicle: saline with Tween-80
[15] = dose: 200.0 mg/kg/injection, schedule: Q01DX009 (ip), vehicle: saline with Tween-80
[16] = dose: 100.0 mg/kg/injection, schedule: Q04DX003 (ip), vehicle: saline with Tween-80
[17] = dose: 200.0 mg/kg/injection, schedule: Q04DX003 (ip), vehicle: saline with Tween-80
[18] = dose: 400.0 mg/kg/injection, schedule: Q04DX003 (ip), vehicle: saline with Tween-80
[19] = dose: 400.0 mg/kg/injection, schedule: Q01DX001 (ip), vehicle: Klucel (hydroxypropylcellulose) (HPC)
[20] = dose: 100.0 mg/kg/injection, schedule: Q01DX001 (ip), vehicle: carboxymethylcellulose (CMC)
[21] = dose: 200.0 mg/kg/injection, schedule: Q01DX001 (ip), vehicle: carboxymethylcellulose (CMC)
[22] = dose: 400.0 mg/kg/injection, schedule: Q01DX001 (ip), vehicle: carboxymethylcellulose (CMC)

Measured: T/C

CNCc1ccccc1C(O)c1ccc(Cl)cc1 (stereo unspecified)
inactive: dose: 3.12 mg/kg/injection, schedule: Q01DX009 (ip), vehicle: Klucel (hydroxypropylcellulose) (HPC) 98 % of control | dose: 6.25 mg/kg/injection, schedule: Q01DX009 (ip), vehicle: Klucel (hydroxypropylcellulose) (HPC) 96 % of control | dose: 12.5 mg/kg/injection, schedule: Q01DX009 (ip), vehicle: Klucel (hydroxypropylcellulose) (HPC) 96 % of control | dose: 25.0 mg/kg/injection, schedule: Q01DX009 (ip), vehicle: Klucel (hydroxypropylcellulose) (HPC) 94 % of control | dose: 25.0 mg/kg/injection, schedule: Q04DX003 (ip), vehicle: Klucel (hydroxypropylcellulose) (HPC) 97 % of control and 98 % of control | [1] 102 % of control | dose: 50.0 mg/kg/injection, schedule: Q04DX003 (ip), vehicle: Klucel (hydroxypropylcellulose) (HPC) 94 % of control | [2] 86 % of control | [3] 104 % of control | [4] 122 % of control

C/C(=C\c1ccc(O)cc1)[N+](=O)[O-]
inactive: [5] 104 % of control | [6] 105 % of control | dose: 100.0 mg/kg/injection, schedule: Q04DX003 (ip), vehicle: acetone 96 % of control | dose: 200.0 mg/kg/injection, schedule: Q01DX009 (ip), vehicle: alcohol 91 % of control | dose: 200.0 mg/kg/injection, schedule: Q04DX003 (ip), vehicle: acetone 105 % of control

O=C1[O][Hg][c]2c1cccc2[N+](=O)[O-]
inactive: dose: 2.5 mg/kg/injection, schedule: Q01DX009 (ip), vehicle: Klucel (hydroxypropylcellulose) (HPC) 92 % of control | dose: 2.5 mg/kg/injection, schedule: Q04DX003 (ip), vehicle: Klucel (hydroxypropylcellulose) (HPC) 89 % of control | dose: 5.0 mg/kg/injection, schedule: Q01DX009 (ip), vehicle: Klucel (hydroxypropylcellulose) (HPC) 90 % of control | dose: 5.0 mg/kg/injection, schedule: Q04DX003 (ip), vehicle: Klucel (hydroxypropylcellulose) (HPC) 88 % of control | dose: 10.0 mg/kg/injection, schedule: Q01DX009 (ip), vehicle: Klucel (hydroxypropylcellulose) (HPC) 92 % of control | dose: 10.0 mg/kg/injection, schedule: Q04DX003 (ip), vehicle: Klucel (hydroxypropylcellulose) (HPC) 93 % of control and 96 % of control | dose: 20.0 mg/kg/injection, schedule: Q04DX003 (ip), vehicle: Klucel (hydroxypropylcellulose) (HPC) 98 % of control

CN(CCS(=O)(=O)O)/N=C/c1ccc2c(c1)OCO2
inactive: dose: 25.0 mg/kg/injection, schedule: Q01DX009 (ip), vehicle: alcohol 112 % of control | [5] 102 % of control | [7] 92 % of control | [6] 101 % of control | dose: 150.0 mg/kg/injection, schedule: Q01DX009 (ip), vehicle: Klucel (hydroxypropylcellulose) (HPC) 94 % of control | dose: 225.0 mg/kg/injection, schedule: Q01DX009 (ip), vehicle: Klucel (hydroxypropylcellulose) (HPC) 97 % of control

CCCCCCCCCCCCCCCCCCNC(=O)NNC(=O)CCCC(=O)NNC(=O)NCCCCCCCCCCCCCCCCCC
inactive: [8] 91 % of control | [9] 97 % of control | [10] 100 % of control | [11] 97 % of control

COc1ccccc1-n1c(=O)c(N=Nc2ccc(Cl)cc2)c(O)n(-c2ccccc2Cl)c1=S
inactive: dose: 50.0 mg/kg/injection, schedule: Q01DX001 (ip), vehicle: Klucel (hydroxypropylcellulose) (HPC) 94 % of control | [12] 101 % of control | [13] 92 % of control

O=C1OC(=O)C2=C1C1C3C=CCC3C2N2C=CC=CC12 (stereo unspecified)
inactive: [1] 96 % of control | [2] 103 % of control | dose: 200.0 mg/kg/injection, schedule: Q01DX009 (ip), vehicle: Klucel (hydroxypropylcellulose) (HPC) 103 % of control

CC(=O)C1C=NC(C)(C)C(C)(C)N=CC(C(C)=O)C(C)=NCCCN=C1C.[Ni] (stereo unspecified)
inactive: dose: 12.5 mg/kg/injection, schedule: Q04DX002 (ip), vehicle: saline 97 % of control | dose: 25.0 mg/kg/injection, schedule: Q04DX002 (ip), vehicle: saline 97 % of control

CCC(C)C(C)C(C)=O (stereo unspecified)
inactive: [8] 110 % of control | [9] 101 % of control | [10] 93 % of control

CCCCSN1CCCCC1
inactive: dose: 100.0 mg/kg/injection, schedule: Q04DX002 (ip), vehicle: saline with Tween-80 93 % of control | dose: 200.0 mg/kg/injection, schedule: Q04DX002 (ip), vehicle: saline with Tween-80 93 % of control

Nc1ccc(OCCCOc2ccccc2)cc1
inactive: [7] 102 % of control | [14] 101 % of control | dose: 200.0 mg/kg/injection, schedule: Q01DX001 (ip), vehicle: saline with Tween-80 102 % of control | [15] 112 % of control | dose: 400.0 mg/kg/injection, schedule: Q01DX001 (ip), vehicle: saline with Tween-80 97 % of control

O=C(O)C12C3C4CC5C3C1C5C42 (stereo unspecified)
inactive: [16] 98 % of control | [17] 106 % of control | [18] 97 % of control

CCCC1(C)NC(=O)NC1=O (stereo unspecified)
inactive: [14] 97 % of control | [16] 110 % of control | [15] 98 % of control | [17] 104 % of control | dose: 400.0 mg/kg/injection, schedule: Q01DX009 (ip), vehicle: saline with Tween-80 93 % of control | [18] 102 % of control

O=C(C#CC(=O)c1ccccc1)c1ccccc1
inactive: dose: 20.0 mg/kg/injection, schedule: Q04DX003 (ip), vehicle: gum acacia 95 % of control | dose: 40.0 mg/kg/injection, schedule: Q04DX003 (ip), vehicle: gum acacia 101 % of control | dose: 80.0 mg/kg/injection, schedule: Q04DX003 (ip), vehicle: gum acacia 100 % of control

O=C(COc1ccc(Cl)c(Cl)c1)Nc1ccc[n+](Cc2cccc([N+](=O)[O-])c2)c1
inactive: [12] 95 % of control | [13] 94 % of control | [19] 94 % of control

O=C(c1ccc([N+](=O)[O-])cc1)C1NC1c1ccccc1 (stereo unspecified)
inactive: dose: 50.0 mg/kg/injection, schedule: Q01DX001 (ip), vehicle: carboxymethylcellulose (CMC) 91 % of control | [20] 97 % of control | [21] 100 % of control | [22] 91 % of control

C1CCC(OB2OB(OC3CCCCC3)OB(OC3CCCCC3)O2)CC1
inactive: dose: 50.0 mg/kg/injection, schedule: Q04DX003 (ip), vehicle: saline 93 % of control | [9] 93 % of control | dose: 100.0 mg/kg/injection, schedule: Q01DX009 (ip), vehicle: saline 97 % of control | dose: 100.0 mg/kg/injection, schedule: Q04DX003 (ip), vehicle: saline 98 % of control | [10] 98 % of control | dose: 200.0 mg/kg/injection, schedule: Q01DX009 (ip), vehicle: saline 110 % of control | dose: 200.0 mg/kg/injection, schedule: Q04DX003 (ip), vehicle: saline 103 % of control | [11] 86 % of control | dose: 400.0 mg/kg/injection, schedule: Q01DX009 (ip), vehicle: saline 111 % of control

c1ccc(C(c2ccccc2)(c2ccccc2)c2ccc(Nc3ccc(C(c4ccccc4)(c4ccccc4)c4ccccc4)cc3)cc2)cc1
inactive: dose: 25.6 mg/kg/injection, schedule: Q04DX002 (ip), vehicle: saline with Tween-80 87 % of control | dose: 64.0 mg/kg/injection, schedule: Q04DX002 (ip), vehicle: saline with Tween-80 91 % of control | dose: 160.0 mg/kg/injection, schedule: Q04DX002 (ip), vehicle: saline with Tween-80 97 % of control | dose: 400.0 mg/kg/injection, schedule: Q04DX002 (ip), vehicle: saline with Tween-80 97 % of control

FC1=C(F)C2(F)C3CCC(O3)C2(F)C(Br)=C1F (stereo unspecified)
inactive: [12] 99 % of control | [3] 101 % of control | [13] 91 % of control | [4] 101 % of control | [19] 100 % of control | dose: 400.0 mg/kg/injection, schedule: Q04DX003 (ip), vehicle: Klucel (hydroxypropylcellulose) (HPC) 98 % of control

CN(C)CCC(O)(c1ccccc1)c1ccccc1Cl (stereo unspecified)
inactive: [20] 90 % of control | [21] 97 % of control | [22] 94 % of control
